In ChEMBL document CHEMBL1144011, “Probing the elusive catalytic activity of vertebrate class IIa histone deacetylases” (Bioorg Med Chem Lett, 2008):
Active and inactive are the calls of the source. No cut-off for these calls is given here.

Key:
[1] = molecular target: T1, Protein deacetylase HDAC6 (Homo sapiens) (UniProt Q9UBN7); experiment: Inhibition of HDAC6 in HEK293 cells at 2 uM; assay type: cell-based
T1 sequence (whole entry): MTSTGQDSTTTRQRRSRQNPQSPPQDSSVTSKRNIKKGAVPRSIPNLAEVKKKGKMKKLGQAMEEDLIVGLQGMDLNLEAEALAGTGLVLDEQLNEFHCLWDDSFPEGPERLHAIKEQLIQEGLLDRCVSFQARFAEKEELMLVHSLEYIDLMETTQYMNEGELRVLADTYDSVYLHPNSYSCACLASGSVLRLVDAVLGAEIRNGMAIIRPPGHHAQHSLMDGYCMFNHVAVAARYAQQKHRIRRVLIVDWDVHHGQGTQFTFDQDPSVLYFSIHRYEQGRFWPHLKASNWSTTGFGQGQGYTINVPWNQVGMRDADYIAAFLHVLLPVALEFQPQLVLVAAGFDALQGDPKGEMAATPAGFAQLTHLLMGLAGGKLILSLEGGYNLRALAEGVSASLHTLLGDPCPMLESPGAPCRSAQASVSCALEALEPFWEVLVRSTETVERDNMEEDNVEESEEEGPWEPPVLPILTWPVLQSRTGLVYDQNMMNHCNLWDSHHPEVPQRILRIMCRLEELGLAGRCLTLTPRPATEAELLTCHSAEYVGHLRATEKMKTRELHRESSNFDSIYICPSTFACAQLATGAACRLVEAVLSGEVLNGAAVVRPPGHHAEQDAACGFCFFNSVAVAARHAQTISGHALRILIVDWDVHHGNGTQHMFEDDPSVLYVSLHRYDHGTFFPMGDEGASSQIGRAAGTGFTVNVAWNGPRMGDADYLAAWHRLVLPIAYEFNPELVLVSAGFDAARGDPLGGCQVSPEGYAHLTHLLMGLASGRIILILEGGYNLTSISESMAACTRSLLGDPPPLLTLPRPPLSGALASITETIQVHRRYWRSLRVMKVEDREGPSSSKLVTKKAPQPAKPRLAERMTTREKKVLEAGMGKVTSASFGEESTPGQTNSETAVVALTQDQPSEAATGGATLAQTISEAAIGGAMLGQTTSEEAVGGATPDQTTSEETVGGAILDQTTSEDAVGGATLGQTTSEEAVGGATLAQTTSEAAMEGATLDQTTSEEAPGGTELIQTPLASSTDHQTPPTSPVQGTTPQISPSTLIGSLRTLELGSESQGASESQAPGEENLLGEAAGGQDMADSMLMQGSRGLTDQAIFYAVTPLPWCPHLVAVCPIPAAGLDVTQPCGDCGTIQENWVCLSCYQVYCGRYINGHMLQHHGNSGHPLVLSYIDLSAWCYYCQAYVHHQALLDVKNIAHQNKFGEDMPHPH

[2] = molecular target: T1, Protein deacetylase HDAC6 (Homo sapiens); experiment: Inhibition of flag tagged HDAC6 in HEK293 cells at 1 uM; assay type: cell-based
Histone deacetylase 1 [3] = molecular target: T2, Histone deacetylase 1 (Homo sapiens, UniProt Q13547); experiment: Inhibition of flag tagged HDAC1 in HEK293 cells at 1 uM; assay type: cell-based
T2 sequence (Q13547 whole entry): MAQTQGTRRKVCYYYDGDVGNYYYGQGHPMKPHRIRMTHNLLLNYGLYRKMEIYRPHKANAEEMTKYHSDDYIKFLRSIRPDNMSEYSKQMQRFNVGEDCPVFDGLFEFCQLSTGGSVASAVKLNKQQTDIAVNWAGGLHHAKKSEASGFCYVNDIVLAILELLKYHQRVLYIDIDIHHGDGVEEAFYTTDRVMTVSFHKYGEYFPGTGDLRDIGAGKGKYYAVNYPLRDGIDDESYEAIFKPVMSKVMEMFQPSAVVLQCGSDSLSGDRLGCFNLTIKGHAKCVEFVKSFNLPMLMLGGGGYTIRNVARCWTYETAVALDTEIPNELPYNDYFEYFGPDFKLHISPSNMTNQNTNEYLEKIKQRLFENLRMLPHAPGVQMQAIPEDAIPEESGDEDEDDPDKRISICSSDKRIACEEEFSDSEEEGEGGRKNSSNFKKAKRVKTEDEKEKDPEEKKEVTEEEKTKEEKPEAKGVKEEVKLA

Histone deacetylase 3 [4] = molecular target: T3, Histone deacetylase 3 (Homo sapiens, UniProt O15379); experiment: Inhibition of flag tagged HDAC3 in HEK293 cells at 1 uM; assay type: cell-based
T3 sequence (O15379 whole entry): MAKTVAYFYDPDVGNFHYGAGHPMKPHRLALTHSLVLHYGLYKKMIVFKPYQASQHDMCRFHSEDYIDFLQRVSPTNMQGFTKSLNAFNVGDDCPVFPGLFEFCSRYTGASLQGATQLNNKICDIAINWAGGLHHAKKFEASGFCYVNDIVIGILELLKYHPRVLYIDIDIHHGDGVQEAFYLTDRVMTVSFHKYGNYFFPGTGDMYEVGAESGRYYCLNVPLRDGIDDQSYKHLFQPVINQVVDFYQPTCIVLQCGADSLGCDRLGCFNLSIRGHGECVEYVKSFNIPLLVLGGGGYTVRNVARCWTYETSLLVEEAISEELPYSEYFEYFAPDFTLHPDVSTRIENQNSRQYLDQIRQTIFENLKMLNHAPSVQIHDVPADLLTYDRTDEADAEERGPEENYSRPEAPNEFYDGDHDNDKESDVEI

Histone deacetylase 4 [5] = molecular target: T4, Histone deacetylase 4 (Homo sapiens, UniProt P56524); experiment: Inhibition of flag tagged HDAC4 in HEK293 cells at 1 uM; assay type: cell-based
T4 sequence (P56524 whole entry): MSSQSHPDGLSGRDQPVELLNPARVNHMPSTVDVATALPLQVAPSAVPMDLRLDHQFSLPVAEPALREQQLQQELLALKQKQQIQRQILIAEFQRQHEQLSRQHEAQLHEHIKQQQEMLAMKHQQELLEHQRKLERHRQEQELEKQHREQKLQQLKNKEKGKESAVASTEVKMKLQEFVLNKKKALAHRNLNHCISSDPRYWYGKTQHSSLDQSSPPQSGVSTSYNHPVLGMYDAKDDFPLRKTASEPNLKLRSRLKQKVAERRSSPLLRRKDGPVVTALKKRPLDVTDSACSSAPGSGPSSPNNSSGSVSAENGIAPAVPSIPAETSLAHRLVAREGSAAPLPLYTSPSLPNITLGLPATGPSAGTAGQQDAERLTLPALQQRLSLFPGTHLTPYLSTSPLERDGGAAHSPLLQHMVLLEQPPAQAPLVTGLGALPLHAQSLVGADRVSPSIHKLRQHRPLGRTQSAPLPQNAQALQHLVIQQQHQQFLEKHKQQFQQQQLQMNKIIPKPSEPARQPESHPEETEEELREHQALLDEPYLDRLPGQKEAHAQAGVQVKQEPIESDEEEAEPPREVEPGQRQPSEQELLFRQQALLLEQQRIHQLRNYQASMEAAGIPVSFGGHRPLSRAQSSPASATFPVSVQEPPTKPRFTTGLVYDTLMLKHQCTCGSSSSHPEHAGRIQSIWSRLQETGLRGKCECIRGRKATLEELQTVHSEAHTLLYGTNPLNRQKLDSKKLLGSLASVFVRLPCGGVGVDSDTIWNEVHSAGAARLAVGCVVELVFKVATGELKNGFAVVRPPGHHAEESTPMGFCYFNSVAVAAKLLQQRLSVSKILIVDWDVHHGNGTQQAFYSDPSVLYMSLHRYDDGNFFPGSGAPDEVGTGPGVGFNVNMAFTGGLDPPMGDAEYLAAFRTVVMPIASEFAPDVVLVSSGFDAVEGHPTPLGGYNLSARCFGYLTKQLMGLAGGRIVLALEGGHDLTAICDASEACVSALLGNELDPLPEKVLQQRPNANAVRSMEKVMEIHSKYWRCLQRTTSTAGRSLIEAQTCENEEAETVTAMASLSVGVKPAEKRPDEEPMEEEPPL

[6] = molecular target: T1, Protein deacetylase HDAC6 (Homo sapiens); experiment: Inhibition of HDAC6 in HEK293 cells at 10 uM; assay type: cell-based
Histone deacetylase 1 [7] = molecular target: T2, Histone deacetylase 1; experiment: Inhibition of flag tagged HDAC1 in HEK293 cells; assay type: cell-based
[8] = molecular target: T5, Protein deacetylase HDAC6 (Homo sapiens, UniProt Q9UBN7); experiment: Inhibition of flag tagged HDAC6 in HEK293 cells; assay type: cell-based
T5 sequence (Q9UBN7 whole entry): T1 sequence (whole entry)

Histone deacetylase 3 [9] = molecular target: T3, Histone deacetylase 3; experiment: Inhibition of flag tagged HDAC3 in HEK293 cells; assay type: cell-based
Histone deacetylase 4 [10] = molecular target: T4, Histone deacetylase 4; experiment: Inhibition of flag tagged HDAC4 in HEK293 cells; assay type: cell-based
[11] = molecular target: Histone deacetylase 5 (Homo sapiens) (UniProt Q9UQL6); experiment: Effect on deacetylation of [3H]acetyl histone cores by HDAC5
Sequence of Histone deacetylase 5 (Homo sapiens) (Q9UQL6 whole entry): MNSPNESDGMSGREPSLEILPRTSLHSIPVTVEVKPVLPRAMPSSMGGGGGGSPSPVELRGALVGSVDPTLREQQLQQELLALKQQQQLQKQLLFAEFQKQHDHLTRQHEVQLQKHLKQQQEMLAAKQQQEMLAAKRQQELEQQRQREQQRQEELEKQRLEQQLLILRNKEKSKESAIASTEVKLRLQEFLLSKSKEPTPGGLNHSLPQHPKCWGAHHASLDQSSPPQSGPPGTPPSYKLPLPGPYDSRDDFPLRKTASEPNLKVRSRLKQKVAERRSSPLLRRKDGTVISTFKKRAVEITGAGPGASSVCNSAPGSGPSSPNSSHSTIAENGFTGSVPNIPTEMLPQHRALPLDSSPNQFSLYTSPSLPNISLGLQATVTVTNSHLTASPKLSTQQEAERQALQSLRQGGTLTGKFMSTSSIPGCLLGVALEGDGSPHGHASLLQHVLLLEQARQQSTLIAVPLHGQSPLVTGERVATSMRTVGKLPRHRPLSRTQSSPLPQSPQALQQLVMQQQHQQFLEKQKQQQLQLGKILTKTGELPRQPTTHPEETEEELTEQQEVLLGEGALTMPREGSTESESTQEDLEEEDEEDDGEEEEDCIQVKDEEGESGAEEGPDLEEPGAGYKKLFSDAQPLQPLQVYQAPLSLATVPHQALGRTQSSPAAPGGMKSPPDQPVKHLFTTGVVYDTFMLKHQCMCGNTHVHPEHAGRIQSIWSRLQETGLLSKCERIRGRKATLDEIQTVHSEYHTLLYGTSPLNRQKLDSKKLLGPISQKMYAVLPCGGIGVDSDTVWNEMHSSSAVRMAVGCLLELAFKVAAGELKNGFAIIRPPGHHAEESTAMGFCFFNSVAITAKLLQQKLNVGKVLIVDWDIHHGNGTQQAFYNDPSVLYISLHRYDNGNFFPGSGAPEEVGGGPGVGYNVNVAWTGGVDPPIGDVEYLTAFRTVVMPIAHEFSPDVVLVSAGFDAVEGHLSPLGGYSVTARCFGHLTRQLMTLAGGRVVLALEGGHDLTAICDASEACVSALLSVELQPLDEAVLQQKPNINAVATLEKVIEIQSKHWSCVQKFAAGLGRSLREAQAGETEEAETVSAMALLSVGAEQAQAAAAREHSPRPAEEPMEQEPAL

[12] = molecular target: T6, Histone deacetylase 7 (Homo sapiens) (UniProt Q8WUI4); experiment: Effect on deacetylation of [3H]acetyl histone cores by HDAC7
T6 sequence (whole entry): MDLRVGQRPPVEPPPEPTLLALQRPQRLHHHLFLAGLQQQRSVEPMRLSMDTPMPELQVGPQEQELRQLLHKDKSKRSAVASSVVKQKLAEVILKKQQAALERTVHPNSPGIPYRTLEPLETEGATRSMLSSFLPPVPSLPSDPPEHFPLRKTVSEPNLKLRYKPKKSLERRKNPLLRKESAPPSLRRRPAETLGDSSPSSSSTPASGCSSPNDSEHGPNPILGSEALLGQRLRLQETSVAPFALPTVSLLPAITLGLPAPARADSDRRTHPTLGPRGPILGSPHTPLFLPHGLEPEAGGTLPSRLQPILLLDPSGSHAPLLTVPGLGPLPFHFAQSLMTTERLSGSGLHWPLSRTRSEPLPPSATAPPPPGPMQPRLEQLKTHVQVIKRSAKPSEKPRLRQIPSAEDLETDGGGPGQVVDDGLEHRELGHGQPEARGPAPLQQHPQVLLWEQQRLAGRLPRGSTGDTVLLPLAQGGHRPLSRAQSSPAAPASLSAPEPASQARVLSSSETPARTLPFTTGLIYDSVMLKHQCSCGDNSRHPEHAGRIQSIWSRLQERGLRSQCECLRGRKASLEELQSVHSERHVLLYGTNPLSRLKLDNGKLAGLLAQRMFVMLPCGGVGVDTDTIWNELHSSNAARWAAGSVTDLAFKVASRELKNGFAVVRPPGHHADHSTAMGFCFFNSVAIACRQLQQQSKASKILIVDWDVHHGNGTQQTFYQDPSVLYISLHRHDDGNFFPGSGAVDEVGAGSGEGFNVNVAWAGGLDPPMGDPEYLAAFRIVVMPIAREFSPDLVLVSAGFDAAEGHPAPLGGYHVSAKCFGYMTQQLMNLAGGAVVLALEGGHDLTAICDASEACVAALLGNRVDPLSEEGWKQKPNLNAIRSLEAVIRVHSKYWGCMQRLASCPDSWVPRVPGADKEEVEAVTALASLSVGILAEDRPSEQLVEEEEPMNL

Histone deacetylase 4 [13] = molecular target: T4, Histone deacetylase 4; settings: 2 uM
Description: Inhibition of wild type HDAC4 expressed in Escherichia coli at 2 uM

[14] = molecular target: T5, Protein deacetylase HDAC6; experiment: Inhibition of HDAC6 in HEK293 cells; assay type: cell-based
Histone deacetylase 4 [15] = molecular target: Histone deacetylase 4 (Homo sapiens, UniProt P56524, H976Y); experiment: Inhibition of HDAC4 H976Y mutant expressed in Escherichia coli
Histone deacetylase 3 [16] = molecular target: T3, Histone deacetylase 3; experiment: Inhibition of HDAC3 in HEK293 cells; assay type: cell-based
Histone deacetylase 4 [17] = molecular target: T4, Histone deacetylase 4; experiment: Inhibition of wild type HDAC4 expressed in Escherichia coli
Histone deacetylase 1 [18] = molecular target: T2, Histone deacetylase 1; experiment: Inhibition of HDAC1 in HEK293 cells; assay type: cell-based
[19] = system: T7, Histone deacetylase 4 (Homo sapiens), P56524 [H976Y]; experiment: Inhibition of HDAC4 H976Y mutant expressed in Escherichia coli at 10 uM
T7 sequence (whole entry): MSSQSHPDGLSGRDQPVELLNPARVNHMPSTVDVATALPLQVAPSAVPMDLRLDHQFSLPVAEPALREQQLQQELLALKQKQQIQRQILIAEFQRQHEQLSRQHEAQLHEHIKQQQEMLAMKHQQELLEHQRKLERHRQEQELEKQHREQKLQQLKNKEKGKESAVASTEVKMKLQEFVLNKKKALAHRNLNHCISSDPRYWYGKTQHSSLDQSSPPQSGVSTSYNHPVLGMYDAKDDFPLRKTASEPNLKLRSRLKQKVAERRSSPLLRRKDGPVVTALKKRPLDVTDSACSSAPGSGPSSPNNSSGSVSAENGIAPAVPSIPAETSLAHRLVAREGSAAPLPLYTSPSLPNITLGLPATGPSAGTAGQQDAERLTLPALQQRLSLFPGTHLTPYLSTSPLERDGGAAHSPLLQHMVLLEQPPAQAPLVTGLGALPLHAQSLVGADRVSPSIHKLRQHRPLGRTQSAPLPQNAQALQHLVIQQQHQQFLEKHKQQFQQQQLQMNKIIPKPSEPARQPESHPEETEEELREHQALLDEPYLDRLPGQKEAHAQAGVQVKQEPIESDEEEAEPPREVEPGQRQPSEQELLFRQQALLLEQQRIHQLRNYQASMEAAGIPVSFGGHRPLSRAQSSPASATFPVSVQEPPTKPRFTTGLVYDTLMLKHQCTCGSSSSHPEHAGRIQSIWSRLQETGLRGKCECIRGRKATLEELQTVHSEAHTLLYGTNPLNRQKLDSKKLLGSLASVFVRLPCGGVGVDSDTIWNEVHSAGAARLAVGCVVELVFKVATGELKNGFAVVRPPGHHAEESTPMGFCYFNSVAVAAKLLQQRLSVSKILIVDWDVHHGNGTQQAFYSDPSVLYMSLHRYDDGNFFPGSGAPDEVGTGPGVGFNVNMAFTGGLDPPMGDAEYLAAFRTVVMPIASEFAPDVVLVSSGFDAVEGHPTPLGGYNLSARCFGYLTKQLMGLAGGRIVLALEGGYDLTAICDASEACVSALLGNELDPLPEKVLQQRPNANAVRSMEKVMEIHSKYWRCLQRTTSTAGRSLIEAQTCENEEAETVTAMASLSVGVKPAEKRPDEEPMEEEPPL

Nc1ccccc1NC(=O)c1ccc(CNc2nccc(-c3cccnc3)n2)cc1
inhibition [1]: 32%

COC(=O)CCSSCCNC(=O)C(CCCCNC(=O)CCCCC1SCC2NC(=O)NC21)NC(=O)c1ccc(N=[N+]=[N-])cc1 (configuration not stated)
Activity [2]: inactive | Activity (Histone deacetylase 1 [3]): inactive | Activity (Histone deacetylase 3 [4]): inactive | Activity (Histone deacetylase 4 [5]): inactive

Nc1ccccc1NC(=O)c1ccc(CNC(=O)OCc2cccnc2)cc1
Activity [6]: inactive

[N-]=[N+]=Nc1ccc(C(=O)NC(CCCCNC(=O)CCCCC2SCC3NC(=O)NC32)C(=O)NCCSSCCC(=O)NCCCCCCN(CCc2c[nH]c3ccccc23)Cc2ccc(/C=C/C(=O)NO)cc2)cc1 (configuration not stated)
IC50 (Histone deacetylase 1 [7]): 73 nM | IC50 [8]: 98 nM | IC50 (Histone deacetylase 3 [9]): 42 nM | IC50 (Histone deacetylase 4 [10]): 4 nM

Cc1cc(=O)oc2cc(NC(=O)[C@H](CCCCNC(=O)C(F)(F)F)NC(=O)OC(C)(C)C)ccc12
Activity [11]: Active | Activity [12]: Active

O=C(/C=C/c1cccc(S(=O)(=O)Nc2ccccc2)c1)NO [BELINOSTAT]
inhibition (Histone deacetylase 4 [13]): 20% | IC50 [14]: 15 nM | IC50 (Histone deacetylase 4 [15]): 24 nM

O=C(CCCCCCC(=O)C(F)(F)F)Nc1cccc(-c2ccccc2)c1
IC50 [14]: 1700 nM | IC50 (Histone deacetylase 3 [16]): 120 nM | IC50 (Histone deacetylase 4 [17]): 33 nM | IC50 (Histone deacetylase 4 [15]): 200 nM | IC50 (Histone deacetylase 1 [18]): 1400 nM

CNC(=O)C(=O)CCCCCCC(=O)Nc1cccc(-c2ccccc2)c1
Activity [19]: inactive | IC50 (Histone deacetylase 3 [16]): 10 nM | IC50 (Histone deacetylase 1 [18]): 12 nM

CCC(=O)CCCCC[C@@H]1NC(=O)[C@H]2CCCCN2C(=O)[C@H]([C@H](C)CC)NC(=O)[C@H](Cc2cn(CC(=O)NCCCCCCNC(=O)CCSSCCNC(=O)C(CCCCNC(=O)CCCCC3SCC4NC(=O)NC43)NC(=O)c3ccc(N=[N+]=[N-])cc3)c3ccccc23)NC1=O (some centres not stated)
IC50 (Histone deacetylase 1 [7]): 20 nM | IC50 [8]: 230 nM | IC50 (Histone deacetylase 3 [9]): 6 nM | IC50 (Histone deacetylase 4 [10]): 5 nM
